Counter-ions that a name gives are not always drawn.
How the values were obtained:
Settings in all cases: exposure time: 15 min to 3 h acute
[1] = system: Dugesia japonica; assay: total locomotor bursts minus vehicle (bursts difference vs vehicle); higher = higher incidence or increase relative to vehicle control
In short: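 Fasted Dugesia japonica planarians, one per well of a sealed 48-well plate in 200 μL solution, were tested 15 min–3 h after exposure to half- or quarter-log concentration series. The vehicle was 0.5% DMSO or water. Total locomotor bursts, an unstimulated behaviour, came from image-based object tracking, with technical triplicates totalling n = 24. Each planarian's value had the plate vehicle-control median subtracted, without ×100 scaling. The value is the median normalised response, and crawled-out worms were excluded.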

[2] = system: Dugesia japonica; assay: any abnormal body shape incidence (% planarians (vehicle-normalised)); higher = higher incidence or increase relative to vehicle control
In short: (§1)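 Body shape incidence, for a given shape or for any abnormal shape, is reported ×100 and normalised to vehicle controls on the same plate, with negative values set to 0. D. japonica planarians fasted for 5–7 days were placed one per well in 200 μL in sealed 48-well plates and exposed to at least 5 concentrations. Within 15 minutes–3 hours of exposure, a researcher scored contraction, C-shape, corkscrew and hyperkinesis manually and blind, excluding worms that crawled out.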

[3] = system: Dugesia japonica; assay: corkscrew incidence (% planarians (vehicle-normalised)); higher = higher incidence or increase relative to vehicle control
In short: as §1

[4] = system: Dugesia japonica; assay: speed first 30 s blue light vs vehicle (% change vs vehicle); higher = higher incidence or increase relative to vehicle control
In short: (§2)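 Crawling speed in the dark or during blue-light periods was measured by automated tracking of intact, fasted Dugesia japonica, one per well of a 48-well plate in 200 μL. Worms were tested 15 min to 3 h after exposure in 0.5% DMSO or water vehicle. Eight worms per concentration per plate were run in technical triplicate (n = 24). Each worm was normalised to the plate's vehicle median, and the value is the median percent change; worms that crawled out were excluded.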

[5] = system: Dugesia japonica; assay: loss of phototaxis incidence (% planarians (vehicle-normalised)); higher = higher incidence or increase relative to vehicle control
In short: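 For each concentration, eight intact, fasted Dugesia japonica per plate were placed singly in wells of a 48-well plate in 200 μL and run in technical triplicate (n = 24). Testing took place 15 min to 3 h after exposure in 0.5% DMSO or water vehicle. Loss of phototaxis was recorded as present or absent by automated object tracking and expressed as an incidence rate normalised to in-plate vehicle controls. For this rate, ×100 was applied, negatives were set to 0, and worms that crawled out were excluded.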

[6] = system: Dugesia japonica; assay: resting fraction in dark vs vehicle (difference in fraction x100 vs vehicle); higher = higher incidence or increase relative to vehicle control
In short: (§3)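 In technical triplicate, eight intact, fasted Dugesia japonica per concentration per plate were tracked automatically to score the resting fraction in the dark or under blue light. Each worm had its own well of a 48-well plate containing 200 μL and was tested 15 min to 3 h after exposure in 0.5% DMSO or water vehicle. Reported values are medians of each worm's difference from the plate's vehicle median multiplied by 100, leaving out worms that crawled out.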

[7] = system: Dugesia japonica; assay: pharynx extrusion incidence (% planarians (vehicle-normalised)); higher = higher incidence or increase relative to vehicle control
In short: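 Fasted, intact Dugesia japonica were scored manually and blind for pharynx extrusion as a body-shape category, with the incidence normalised to in-plate vehicle controls. Testing took place 15 min to 3 h after exposure, one worm per well in 200 μL of 0.5% DMSO or water vehicle, with eight worms per concentration per plate in triplicate (n = 24). Worms that crawled out were excluded, and negative values were set to 0.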

[8] = system: Dugesia japonica; assay: noxious heat displacement strength vs vehicle (% change vs vehicle); higher = higher incidence or increase relative to vehicle control
In short: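 Each intact, fasted Dugesia japonica was tested alone in a well of a 48-well plate in 200 μL, 15 min to 3 h after exposure in 0.5% DMSO or water vehicle. Eight worms per concentration per plate were used in technical triplicate (n = 24). Displacement strength under noxious heat came from the scrunching assay with automated object tracking and is given as the median percent change against the plate's vehicle median, excluding worms that crawled out.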

[9] = system: Dugesia japonica; assay: C-shape incidence (% planarians (vehicle-normalised)); higher = higher incidence or increase relative to vehicle control
In short: as §1

[10] = system: Dugesia japonica; assay: loss of heat-induced scrunching incidence (% planarians (vehicle-normalised)); higher = higher incidence or increase relative to vehicle control
In short: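 Planarians of the species D. japonica, fasted for 5–7 days, were placed singly in wells of sealed 48-well plates in 200 μL and exposed to at least 5 concentrations, 24 worms per concentration in technical triplicates. Scrunching in response to a noxious heat stimulus was tested within 15 minutes–3 hours, and any worm that crawled out was excluded. The reported figure is the incidence of non-scrunching worms, normalised to vehicle controls on the same plate. This incidence is given ×100, with negatives set to 0.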

[11] = system: Dugesia japonica; assay: speed in dark vs vehicle (% change vs vehicle); higher = higher incidence or increase relative to vehicle control
Description: (§4)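 Adult asexual Dugesia japonica planarians (1 per well, 48-well plate, n=24 over technical triplicates) were exposed acutely (15 min to 3 h) to each compound (0.5% DMSO or water vehicle) and screened on a robotic platform for crawl-out, stickiness, body shape, phototaxis, noxious-heat scrunching and locomotion endpoints. Binary endpoints are incidence rate x100 normalised to in-plate vehicle controls. Continuous endpoints are the median response normalised to the plate vehicle median, as % change or difference. Negative incidences after vehicle subtraction were set to 0.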

[12] = system: Dugesia japonica; assay: hyperkinesis incidence (% planarians (vehicle-normalised)); higher = higher incidence or increase relative to vehicle control
In short: as §1

[13] = system: Dugesia japonica; assay: contracted body shape incidence (% planarians (vehicle-normalised)); higher = higher incidence or increase relative to vehicle control
In short: as §1

[14] = system: Dugesia japonica; assay: anxiety (time in outer well region) vs vehicle (% change vs vehicle); higher = higher incidence or increase relative to vehicle control
In short: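 Dugesia japonica planarians fasted for 5–7 days were placed one per well in 200 μL in sealed 48-well plates and exposed to at least 5 concentrations, with n = 24 per concentration in technical triplicates, then screened within 15 minutes–3 hours. Object tracking in MATLAB or Python measured the time each worm spent in the outer portion of the well, and worms that crawled out were excluded. Each response was divided by, or reduced by, the plate vehicle median and multiplied by 100. The reported value is the median of these normalized responses.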

[15] = system: Dugesia japonica; assay: resting fraction in blue light vs vehicle (difference in fraction x100 vs vehicle); higher = higher incidence or increase relative to vehicle control
In short: as §3

[16] = system: Dugesia japonica; assay: crawl-out incidence (% planarians); higher = higher incidence or increase relative to vehicle control
Description: as §4, with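 “x100.” for “x100 normalised to in-plate vehicle controls.”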

[17] = system: Dugesia japonica; assay: stickiness incidence (% planarians (vehicle-normalised)); higher = higher incidence or increase relative to vehicle control
In short: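 In the Stickiness assay, fasted Dugesia japonica planarians were each placed in one well of a sealed 48-well plate containing 200 μL of solution, with 0.5% DMSO or water as vehicle. Testing took place 15 min–3 h after exposure to half- or quarter-log concentration series. Stickiness was recorded as a binary endpoint, and its incidence was expressed relative to in-plate vehicle incidence after pooling technical triplicates and removing worms that crawled out. Negative values were set to 0 and all values were multiplied by 100.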

[18] = system: Dugesia japonica; assay: speed second 30 s blue light vs vehicle (% change vs vehicle); higher = higher incidence or increase relative to vehicle control
In short: as §2

SMILES	total locomotor bursts minus vehicle [1]	any abnormal body shape incidence [2]	corkscrew incidence [3]	speed first 30 s blue light [4]	loss of phototaxis incidence [5]	resting fraction in dark [6]	pharynx extrusion incidence [7]	noxious heat displacement strength [8]	C-shape incidence [9]	loss of heat-induced scrunching incidence [10]	speed in dark [11]	hyperkinesis incidence [12]	contracted body shape incidence [13]	anxiety [14]	resting fraction in blue light [15]	crawl-out incidence [16]	stickiness incidence [17]	speed second 30 s blue light [18]
O=C(CCCN1CC=C(n2c(=O)[nH]c3ccccc32)CC1)c1ccc(F)cc1 [droperidol] (1 µM)	11.8	16.7	4.17	-63.6	16.7	3.77	0	-54.4	0	58.3	-60.7	12.5	0	11.5	9.81	0	≤ 0	-69.5
CN[C@H]1CC[C@@H](c2ccc(Cl)c(Cl)c2)c2ccccc21 [sertraline hydrochloride] (1 µM)	-2.5	12.5	0	-11.7	≤ 0	5.44	0	-12.6	0	4.17	0.19	12.5	0	5.35	0	0	8.33	-15.7
CNCCC(Oc1ccc(C(F)(F)F)cc1)c1ccccc1 (stereo unspecified) [fluoxetine hydrochloride] (1 µM)	-7	0	0	33.5	≤ 0	-9.67	0	12	0	8.33	33.6	0	0	6.17	-1.64	0	4.17	14.9
CN(C)CCCC1(c2ccc(F)cc2)OCc2cc(C#N)ccc21 (stereo unspecified) [citalopram hydrobromide] (10 µM)	1.75	12.5	0	9.22	16.7	1.41	0	-8.3	0	25	-7.94	8.33	0	5.9	0.82	0	12.5	-12.8
Cc1cc2c(s1)Nc1ccccc1N=C2N1CCN(C)CC1 [olanzapine] (3.16 µM)	41.2	58.3	0	-79.2	≤ 0	51.2	0	-37.1	8.33	45.8	-69	54.2	0	-4.66	34	4.17	≤ 0	-75.2
O=C(CCCN1CCC(O)(c2ccc(Cl)cc2)CC1)c1ccc(F)cc1 [haloperidol] (1 µM)	0	4.35	0	-26.1	21.7	32.1	0	-20.5	0	≤ 0	-17.7	0	4.35	1.11	10.1	4.17	≤ 0	-36.1
O=C1CC2(CCCC2)CC(=O)N1CCCCN1CCN(c2ncccn2)CC1 [buspirone] (1 µM)	0.5	12.5	0	-6.54	16.7	-6.06	0	-21.9	4.17	≤ 0	11.8	8.33	0	3.11	4.28	0	≤ 0	-19.1

— the supplement of paper PMC11781733
